This is an account of results in patent publication US20230091047A1 (priority 2019, published 2023).

The subject of series [1] is HBV (HepG2.117 cell line, inducibly HBV producing). Briefly: Anti-HBV activity: intracellular HBV DNA by real-time PCR in HepG2.117 cells after 3 days of treatment. The series is classed as cell-based, hepatitis B virus. In outline: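 Read-out is intracellular HBV DNA, measured by real-time PCR using HBV-specific primers and probe. Cells were stable, inducible HBV-producing HepG2.117 (Tet-off). Serially diluted compound was applied for 3 days after replication was induced.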

Another series in a line: in vitro. As to conditions: human, HepG2 or HepG2.117 cells, ATPlite, mean value. The series is classed as cell-based. In outline: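 Luminescent ATP quantitation served as the viability endpoint following a 3- or 4-day incubation with test compounds.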
Background: Cellular ATP, detected with luciferase, serves as a proxy for viable cell number.

Where [2] appears, read: Hepatitis B virus, HepG2.117, 72 h, HepG2.117 cells, 3 days of treatment, intracellular HBV DNA by real-time PCR; mean value; read-out: EC50 (μM, mean value).
Setting [3] is: 3-days incubation (unmarked values).
Where [4] appears, read: Hepatitis B virus, HepG2.117, 72 h, HepG2.117 cells, intracellular HBV DNA by real-time PCR, 3 days of treatment, mean value; read-out: EC50 (μM, mean value).
Where [5] appears, read: 3-days incubation (not marked with *).

Read-outs that look alike come from different tables or passages of the source. Bounds are passed on as bounds.

On to `CC(C)Nc1nc2c(c(=O)n1[C@H]1CC[C@@H](S(C)(=O)=O)CC1)C[C@@H](C)N(C(=O)c1ccc(Cl)c(Cl)c1)C2` [Compound C262, (6R)-7-(3,4-dichlorobenzoyl)-3-[cis-4-(methanesulfonyl)cyclohexyl]-6-methyl-2-[(propan-2-yl)amino]-5,6,7,8-tetrahydropyrido[3,4-d]pyrimidin-4(3H)-one], for which, in series [1] (setting [2]), the EC50 was found to be 0.11 µM. The compound further returned a half-maximal cytotoxic concentration (CC50) at 3 days in the series “in vitro” (setting [3]) of 22.5 µM.

`CNC(=O)c1cc(-n2c(NC(C)C)nc3c(c2=O)C[C@@H](C)N(C(=O)c2ccc(Cl)c(C(F)(F)F)c2)C3)nn1C` [Compound C668]: in series [1] (setting [4]), the concentration giving a half-maximal response (EC50) was determined as 0.01 µM. Also, the CC50 at 3 days in the series “in vitro” (setting [5]) is more than 50 µM.

For `COc1cc(-n2c(NC(C)C)nc3c(c2=O)CCN(C(=O)c2ccc(Cl)c(Cl)c2)C3)cc(S(C)(=O)=O)c1` [Compound C88, 7-(3,4-dichlorobenzoyl)-3-[3-(methanesulfonyl)-5-methoxyphenyl]-2-[(propan-2-yl)amino]-5,6,7,8-tetrahydropyrido[3,4-d]pyrimidin-4(3H)-one], in series [1] (setting [2]), the EC50 turned out to be 4.99 µM. Moreover, the CC50 at 3 days in “in vitro” (setting [3]) is more than 50 µM.

Regarding `CNC(=O)c1ccc(-n2c(NC(C)C)nc3c(c2=O)C[C@@H](C)N(C(=O)c2cc4c(Cl)c(Cl)ccc4[nH]2)C3)cc1` [Compound C566], in series [1] (setting [4]), the EC50 was 0.03 µM. The CC50 at 3 days in the series “in vitro” (setting [5]) is 6.8 µM.

As to `CNC(=O)c1ccc(-n2c(NC(C)C)nc3c(c2=O)C[C@@H](C)N(C(=O)c2ccc(Br)c(Cl)c2F)C3)cc1` [Compound C580], the EC50 in series [1] (setting [4]) stood at 0.08 µM. In “in vitro” (setting [5]), the CC50 at 3 days is more than 50 µM.

Regarding `CNC(=O)c1ccc(-n2c(NC(C)C)nc3c(c2=O)C[C@@H](C)N(C(=O)c2ccc(C(C)(F)F)cc2)C3)cc1` [Compound C573], the EC50 in series [1] (setting [4]) was found to be 0.32 µM. In “in vitro” (setting [5]), this compound gave a cytotoxic concentration (CC50) at 3 days of more than 50 µM.

Consider `CNC(=O)c1ccc(-n2c(Nc3cn(C)nn3)nc3c(c2=O)C[C@@H](C)N(C(=O)c2ccc(Cl)c(Cl)c2)C3)cc1` [Compound C421], for which the EC50 in series [1] (setting [4]) is more than 8.1 µM. For the same compound, the CC50 at 3 days in “in vitro” (setting [5]) was more than 50 µM.

In the case of `CNC(=O)c1ccc(-n2c(NC(C)C)nc3c(c2=O)C[C@@H](C)N(C(=O)c2ccc(Br)c4c2OCCC4)C3)cc1` [Compound C588], in series [1] (setting [4]), the 50% effective concentration (EC50) was 1.61 µM. Also, in the series “in vitro” (setting [5]), the CC50 at 3 days is more than 50 µM.

In the case of `CNC(=O)c1ccc(-n2c(N[C@H](C)c3ccc4c(ccn4C)c3)nc3c(c2=O)C[C@@H](C)N(C(=O)c2ccc(Cl)c(Cl)c2)C3)cc1` (single isomer, unassigned) [Compound C450a], in series [1] (setting [4]), the EC50 amounted to 0.02 µM. The compound further gave a CC50 at 3 days in the series “in vitro” (setting [5]) of more than 50 µM.

As to `CNC(=O)c1ccc(-n2c(NC3(c4ccccc4)CC3)nc3c(c2=O)C[C@@H](C)N(C(=O)c2ccc(Cl)c(Cl)c2)C3)cc1` [Compound C662], the EC50 in series [1] (setting [4]) is 0.16 µM. This compound also showed a half-maximal cytotoxic concentration (CC50) at 3 days in the series “in vitro” (setting [5]) of 30.5 µM.

As for `COc1ccc(CNc2nc3c(c(=O)n2C2CCCCC2)CCN(C(=O)c2ccc(Cl)c(Cl)c2)C3)cc1` [Compound C64, 3-cyclohexyl-7-(3,4-dichlorobenzoyl)-2-{[(4-methoxyphenyl)methyl]amino}-5,6,7,8-tetrahydropyrido[3,4-d]pyrimidin-4(3H)-one], in series [1] (setting [2]), the EC50 was 8.91 µM. Further, the half-maximal cytotoxic concentration (CC50) at 3 days in “in vitro” (setting [3]) was more than 50 µM.

With `COc1ccccc1-n1c(NCC2CCN(C(C)=O)CC2)nc2c(c1=O)CCN(C(=O)c1ccc(Cl)c(Cl)c1)C2` [Compound C25, 2-{[(1-acetylpiperidin-4-yl)methyl]amino}-7-(3,4-dichlorobenzoyl)-3-(2-methoxyphenyl)-5,6,7,8-tetrahydropyrido[3,4-d]pyrimidin-4(3H)-one], the 50% effective concentration (EC50) in series [1] (setting [2]) was 44.7 µM. For the same compound, the CC50 at 3 days in “in vitro” (setting [3]) is more than 50 µM.

Consider `COc1ccc(CNc2nc3c(c(=O)n2CC(C)C)CCN(C(=O)c2ccc(Cl)c(Cl)c2)C3)cc1` [Compound C67, 7-(3,4-dichlorobenzoyl)-2-{[(4-methoxyphenyl)methyl]amino}-3-(2-methylpropyl)-5,6,7,8-tetrahydropyrido[3,4-d]pyrimidin-4(3H)-one], for which the half-maximal effective concentration (EC50) in series [1] (setting [2]) stood at 9.51 µM. Also, in the series “in vitro” (setting [3]), the cytotoxic concentration (CC50) at 3 days is more than 50 µM.

As to `CC(C)Nc1nc2c(c(=O)n1-c1ccc(C(=O)O)cc1)C[C@@H](C)N(C(=O)c1ccc(Cl)c(Cl)c1)C2` [Compound I70, (R)-4-(7-(3,4-dichlorobenzoyl)-2-(isopropylamino)-6-methyl-4-oxo-5,6,7,8-tetrahydropyrido[3,4-d]pyrimidin-3(4H)-yl)benzoic acid], the EC50 in series [1] (setting [4]) worked out at 3.6 µM. The half-maximal cytotoxic concentration (CC50) at 3 days in “in vitro” (setting [5]) is more than 50 µM.

As for `COc1ccc(CN(C)c2nc3c(c(=O)n2-c2ccccc2OC)CCN(C(=O)c2ccc(Cl)c(Cl)c2)C3)cc1` [Compound C43, 7-(3,4-dichlorobenzoyl)-3-(2-methoxyphenyl)-2-{[(4-methoxyphenyl)methyl](methyl)amino}-5,6,7,8-tetrahydropyrido[3,4-d]pyrimidin-4(3H)-one], in series [1] (setting [2]), the EC50 is 5.64 µM. The CC50 at 3 days in the series “in vitro” (setting [3]) is more than 50 µM.

In the case of `CNC(=O)c1ccc(-n2c(NC34C5C6C7C5C3C7C64)nc3c(c2=O)C[C@@H](C)N(C(=O)c2ccc(Cl)c(Cl)c2)C3)cc1` (stereo partly shown) [Compound C461], in series [1] (setting [4]), the concentration for a half-maximal effect (EC50) stood at 1.45 µM. In “in vitro” (setting [5]), the CC50 at 3 days was more than 50 µM.

In the case of `CC(C)Nc1nc2c(c(=O)n1-c1ccc(S(C)(=O)=O)cc1)CCN(C(=O)c1cc(Cl)c(Cl)s1)C2` [Compound C181, 7-(4,5-dichlorothiophene-2-carbonyl)-3-[4-(methanesulfonyl)phenyl]-2-[(propan-2-yl)amino]-5,6,7,8-tetrahydropyrido[3,4-d]pyrimidin-4(3H)-one], in series [1] (setting [2]), the EC50 came out at 2.56 µM. In “in vitro” (setting [3]), this compound displayed a CC50 at 3 days of more than 50 µM.

For the compound `CC(C)Nc1nc2c(c(=O)n1-c1ccc(S(C)(=O)=O)cc1)CCN(C(=O)c1ccc(Cl)c(Cl)c1)C2` [Compound C85, 7-(3,4-dichlorobenzoyl)-3-[4-(methanesulfonyl)phenyl]-2-[(propan-2-yl)amino]-5,6,7,8-tetrahydropyrido[3,4-d]pyrimidin-4(3H)-one], the concentration for a half-maximal effect (EC50) in series [1] (setting [2]) amounted to 0.85 µM. The compound further showed a CC50 at 3 days in the series “in vitro” (setting [3]) of more than 50 µM.

`CNC(=O)c1ncc(-n2c(NC(C)C)nc3c(c2=O)C[C@@H](C)N(C(=O)c2ccc(Cl)c(Cl)c2)C3)n1C` [Compound C419]: the EC50 in series [1] (setting [4]) was found to be 0.19 µM. In the series “in vitro” (setting [5]), this compound registered a CC50 at 3 days of more than 50 µM.

In the case of `CNc1[nH]nc2cc(-n3c(NC(C)C)nc4c(c3=O)C[C@@H](C)N(C(=O)c3ccc(Cl)c(Cl)c3)C4)ccc12` [Compound C627], the concentration giving a half-maximal response (EC50) in series [1] (setting [4]) was found to be 0.12 µM. Also, in the series “in vitro” (setting [5]), the midpoint of cytotoxicity, the CC50 at 3 days, lay at 33.6 µM.

Consider `CNC(=O)c1ccc(-n2c(N3CCOCC(C)C3)nc3c(c2=O)C[C@@H](C)N(C(=O)c2ccc(Cl)c(Cl)c2)C3)cc1` (stereo partly shown) [Compound C518], for which the EC50 in series [1] (setting [4]) was found to be 0.47 µM. This compound showed a CC50 at 3 days in the series “in vitro” (setting [5]) of more than 50 µM.

Consider `CNC(=O)c1ccc(-n2c(NCc3cnn(C)n3)nc3c(c2=O)C[C@@H](C)N(C(=O)c2ccc(Cl)c(Cl)c2)C3)cc1` [Compound C560], for which, in series [1] (setting [4]), the half-maximal effective concentration (EC50) was 2.59 µM. This compound gave a CC50 at 3 days in “in vitro” (setting [5]) of more than 50 µM.

In the case of `CNc1noc2ccc(-n3c(NC(C)C)nc4c(c3=O)C[C@@H](C)N(C(=O)c3ccc(Cl)c(Cl)c3)C4)cc12` [Compound C263, (6R)-7-(3,4-dichlorobenzoyl)-6-methyl-3-[3-(methylamino)-1,2-benzoxazol-5-yl]-2-[(propan-2-yl)amino]-5,6,7,8-tetrahydropyrido[3,4-d]pyrimidin-4(3H)-one], the half-maximal effective concentration (EC50) in series [1] (setting [2]) is 0.17 µM. Besides, the 50% cytotoxic concentration (CC50) at 3 days in the series “in vitro” (setting [3]) was more than 50 µM.

For `Cc1cc(-n2cccn2)ccc1-n1c(NC(C)C)nc2c(c1=O)C[C@@H](C)N(C(=O)c1ccc(Cl)c(Cl)c1)C2` [Compound C308, (6R)-7-(3,4-dichlorobenzoyl)-6-methyl-3-[2-methyl-4-(1H-pyrazol-1-yl)phenyl]-2-[(propan-2-yl)amino]-5,6,7,8-tetrahydropyrido[3,4-d]pyrimidin-4(3H)-one], the EC50 in series [1] (setting [2]) turned out to be 0.11 µM. The half-maximal cytotoxic concentration (CC50) at 3 days in the series “in vitro” (setting [3]) was more than 50 µM.

For the compound `Cc1ccncc1-n1c(NC(C)C)nc2c(c1=O)CCN(C(=O)c1ccc(Cl)c(Cl)c1)C2` [Compound C114, 7-(3,4-dichlorobenzoyl)-3-(4-methylpyridin-3-yl)-2-[(propan-2-yl)amino]-5,6,7,8-tetrahydropyrido[3,4-d]pyrimidin-4(3H)-one], the half-maximal effective concentration (EC50) in series [1] (setting [2]) was determined as 1.78 µM. Further, in the series “in vitro” (setting [3]), the CC50 at 3 days is more than 50 µM.

Take `CNC(=O)c1ccc(-n2c(N[C@@H](C)C3CC3)nc3c(c2=O)C[C@@H](C)N(C(=O)c2ccc(Cl)c(C(F)(F)F)c2)C3)c(Cl)c1` (single isomer, unassigned) [Compound C676a]: the concentration for a half-maximal effect (EC50) in series [1] (setting [4]) is 0.03 µM. In the series “in vitro” (setting [5]), this compound had a cytotoxic concentration (CC50) at 3 days of more than 50 µM.

Regarding `CCOC(=O)c1ccc(-n2c(NCc3ccc(OC)cc3)nc3c(c2=O)CCN(C(=O)c2ccc(Cl)c(Cl)c2)C3)cc1` [Compound C121, ethyl 4-[7-(3,4-dichlorobenzoyl)-2-{[(4-methoxyphenyl)methyl]amino}-4-oxo-5,6,7,8-tetrahydropyrido[3,4-d]pyrimidin-3(4H)-yl]benzoate], the concentration giving a half-maximal response (EC50) in series [1] (setting [2]) is 1.55 µM. Also, in the series “in vitro” (setting [3]), the CC50 at 3 days was more than 50 µM.

On to `COc1ccc(C(CCO)Nc2nc3c(c(=O)[nH]2)CCN(C(=O)c2ccc(Cl)c(Cl)c2)C3)cc1` (stereo not shown) [Compound C92, 7-(3,4-dichlorobenzoyl)-2-{[3-hydroxy-1-(4-methoxyphenyl)propyl]amino}-5,6,7,8-tetrahydropyrido[3,4-d]pyrimidin-4(3H)-one], for which, in series [1] (setting [2]), the EC50 came to 7.09 µM. In the series “in vitro” (setting [3]), this compound registered a half-maximal cytotoxic concentration (CC50) at 3 days of 24.8 µM.

Consider `CC(C)Nc1nc2c(c(=O)n1C1CCS(=O)(=O)CC1)CCN(C(=O)c1ccc(Cl)c(Cl)c1)C2` [Compound C120, 4-[7-(3,4-dichlorobenzoyl)-4-oxo-2-[(propan-2-yl)amino]-5,6,7,8-tetrahydropyrido[3,4-d]pyrimidin-3(4H)-yl]-1λ^6-thiane-1,1-dione], for which the 50% effective concentration (EC50) in series [1] (setting [2]) was 7.36 µM. Besides, the cytotoxic concentration (CC50) at 3 days in “in vitro” (setting [3]) was more than 50 µM.

What is called EC50 is the concentration needed to bring the measured effect to its halfway point. The term CC50 denotes the concentration giving 50% cytotoxicity.
